In patent US9738605B2, “Hybrid compounds of curcumin and melatonin as neuroprotectants for neurodegenerative disorders” (VIRGINIA COMMONWEALTH UNIVERSITY, priority 2013, dated 2017):
Entries after “also recorded” stand apart in the source; their conditions may differ.

Key:
[1] = system: APP/PS1 transgenic mice; assay: Oral treatment of APP/PS1 transgenic AD mouse model; format: in vivo; details: 50 mg/kg oral gavage, 12 weeks, 4 month-old APP/PS1 mice
Protocol: FIG. 8A-D. AM24 (7) (50 mg/kg) oral gavage treatment in 4 month-old APP/PS1 transgenic animals during 12 weeks. Immunochemistry was performed using anti-Aβ 1-16 Clone 82E1 (1/1000, Mouse) in (A) control and (B) AM24-treated mice. Percent area of (C) Cortex (Cx) and (D) Cortex plus Hippocampus (CxHp) was measured. Statistical analysis was performed by T test *p<0.05. Experiment was assessed with APP/PS1-saline (n=4) and APP/PS1-AM24 (n=7) mice. Scale bar represents 500 μm.
FIG. 9A-C. AM24 (7) (50 mg/kg) oral gavage treatment during 12 weeks in 4 month-old APP/PS1 transgenic animals. Immunochemistry was performed using anti-Aβ 1-16 Clone 82E1 (1/1000, Mouse) in (A) control and (B) AM24-treated mice. (C) Percent area Hippocampus (Hp) was measured. Experiment was assessed with APP/PS1-saline (n=4) and APP/PS1-AM24 (n=7) mice. […] Scale bar represents 200 μm.
FIG. 10A-E. AM24 (7) (50 mg/kg) oral gavage treatment during 12 weeks in 4 month-old APP/PS1 transgenic animals. Immunochemistry in (A) control and (B) AM24-treated mice and (C) Western Blot were performed using anti-GFAP (1/250 and 1/2000 respectively, Rabbit). (D) Band Intensity was compared with saline treated APP/PS1 mice. (E) Percent area Hippocampus (Hp) was measured. Experiment was assessed with APP/PS1-saline (n=4) and APP/PS1-AM24 (n=7) mice. […] Scale bar represents 200 μm. […]
FIG. 15A-B. AM24 (7) (50 mg/kg) oral gavage treatment in 4 month-old APP/PS1 transgenic animals during 12 weeks. (A) Western-blot was performed using anti-HNE (1/2000, Rabbit) stress marker. (B) Band Intensity was compared with saline treated APP/PS1 mice. Experiment was assessed with APP/PS1-saline (n=4) and APP/PS1-AM24 (n=7) mice. Statistical analysis was performed by T test ** p<0.01.
FIG. 16A-B. AM24 (50 mg/kg) oral gavage treatment in 4 month-old APP/PS1 transgenic animals during 12 weeks. (A) Mitochondrial complex Western-blot was performed using OXPhOS cocktail antibody (1/2000, Mouse) to measure I, II, III and V Complex, and MTCO CIV for complex IV (1/2000, Mouse). (B) Band Intensity was compared with saline treated APP/PS1 mice. Experiment was assessed with APP/PS1-saline (n=4) and APP/PS1-AM24 (n=7) mice. Statistical analysis was performed by T test **p<0.01.
APP/PS1 (amyloid precursor protein/presenilin-1) transgenic mice are a well known model for Alzheimer's disease. In this study, APP/PS1 mice were treated with 50 mg/kg of AM24 (compound 7) and the effects on cell type/morphology and the levels of several neuroinflammatory and stress markers was observed. […] However, there was no decrease in hippocampal plaques (FIG. 9A-C). Additionally, there was no change in the expression of glial fibrillary acid protein (GFAP), a neuroinflammation marker, in the hippocampus of AM24 treated animals (FIG. 10A-E).

[2] = target: T1, Aβ42 (Homo sapiens, UniProt P05067); assay: Thioflavin T assay of Aβ42 fibril formation; format: biochemical; details: up to 100 μM, 48 h, ThT
T1 construct: purchased American Peptide, Inc. (Sunnyvale, Calif.)
T1 sequence (P05067 672-713 limits assumed): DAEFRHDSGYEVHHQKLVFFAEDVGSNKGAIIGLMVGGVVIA
Protocol: Briefly, 1 μL of each compound solution in DMSO (0.01 μM to 100 μM) was added to corresponding wells in a 96-well plate. Each concentration was prepared in independent triplicates and a solvent control was included. To each well, 9 μL of 25 μM Aβ42 in PBS (pH 7.4) was added, and then plates were incubated in dark at room temperature for 48 h. Next, 200 μL of a 5 μM ThT in 50 mM glycine solution (pH 8.0) was added to each well.

[3] = system: HT22 cells; assay: Hydrogen peroxide toxicity assay in HT22 cells; format: cell-based, mouse; details: up to 0.3 μM, H2O2 500 μM, 24 h
Protocol: HT22 cells were seeded in 96-well plates (4×10^3 cells/well) in growth medium and incubated for 24 h at 37° C. The medium was removed and compounds were added at the indicated concentrations in fresh growth medium, and the cells were incubated for another 1 h. H2O2 was then added at a final concentration of 500 μM, and the plates were then incubated for 24 h. Cell viability was assessed by MTT assay as previously described. Values were expressed as a percentage relative to the negative (H2O2-free) control.

[4] = in vitro; details: PAMPA
Protocol: In the same assay, 10 commercial drugs with known CNS penetration were also tested as positive controls, and their experimental values were compared to reported values (Table 1).

COc1ccc2[nH]cc(CCNC(=O)CC(=O)CCc3ccc(O)cc3)c2c1 [Compound 7, 5-(4-hydroxy-phenyl)-3-oxo-pentanoic acid [2-(5-methoxy-1H-indol-3-yl)-ethyl]-amide]
NADH Dehydrogenase-Complex I (mitochondrial complex Western blot) [1]: powerful increase
cortical and cortex/hippocampal amyloid plaques [1]: significant decrease
expression of 8-Hydroxyguanosine (80HG) in the hippocampus [1]: significant decrease
expression of heme-oxygenase-1 (HO-1) [1]: no change
total number and type of glial cells (hippocampus, IBA-1) [1]: remained constant
expression of 4-hydroxy-2-nonenal (HNE) ([1]; vs saline): significant decrease
expression of GFAP in the hippocampus ([1]; listed as AM24): no change; also recorded: no differences were detected
hippocampal amyloid plaques ([1]; listed as AM24): no decrease; also recorded: no differences were detected
inhibition of the formation of Aβ42 fibrils [2]: no significant inhibition
protection from H2O2-induced cytotoxicity [3]: no protection
Papp [4]: 7.9 ± 0.6 ×10⁻⁶ cm/s
